Experimental data: patent US20040010038A1, “Propargylamino indan derivatives and propargylamino tetralin derivatives as brain-selective MAO inhibitors” (priority 2002, published 2004)
Structures can show the parent of a compound that is named as a salt. Where two headings read alike, the source gives them in different places.

What was measured:
MAO-B [1] = molecular target: T1, MAO-B (Rattus norvegicus, UniProt P19643); assay: Inhibition of MAO activity in vitro (PEA as substrate); format: biochemical
T1 construct: The MAO enzyme source was a homogenate of rat brain in 0.3 M sucrose 1:20 w/v; from tissue; host or cells: rat brain homogenate
T1 sequence (P19643 1-520): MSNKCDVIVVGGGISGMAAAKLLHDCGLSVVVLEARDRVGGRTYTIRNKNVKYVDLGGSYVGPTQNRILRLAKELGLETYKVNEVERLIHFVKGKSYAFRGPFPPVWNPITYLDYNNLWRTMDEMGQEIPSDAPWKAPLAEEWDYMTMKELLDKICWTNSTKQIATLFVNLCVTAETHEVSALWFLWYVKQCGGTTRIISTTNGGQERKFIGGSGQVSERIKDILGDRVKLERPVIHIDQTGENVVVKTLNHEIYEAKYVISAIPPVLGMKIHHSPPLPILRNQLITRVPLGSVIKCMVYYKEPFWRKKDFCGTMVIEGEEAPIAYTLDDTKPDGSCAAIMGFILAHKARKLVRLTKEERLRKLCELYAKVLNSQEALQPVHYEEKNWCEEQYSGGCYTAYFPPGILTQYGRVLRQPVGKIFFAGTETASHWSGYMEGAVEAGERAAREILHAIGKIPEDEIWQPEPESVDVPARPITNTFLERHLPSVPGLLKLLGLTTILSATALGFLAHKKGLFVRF
Experimental: (§1) Inhibition of MAO Activity In Vitro Experimental Protocol
(§2) The reaction was then stopped by addition of citric acid. Radioactivity indicates the production of 5-HT and PEA metabolites formed as a result of MAO activity.
(§3) A mixture of toluene: ethyl acetate (1:1) was added to the reaction and mixed for 10 minutes, followed by 5 minutes of centrifugation at 1760 g. The upper phase was taken for radioactive determination by liquid scintillation spectrometry.

MAO-A [2] = molecular target: T2, MAO-A (Rattus norvegicus, UniProt P21396); assay: Inhibition of MAO activity in vitro (5-HT as substrate); format: biochemical
T2 construct: The MAO enzyme source was a homogenate of rat brain in 0.3 M sucrose 1:20 w/v; from tissue; host or cells: rat brain homogenate
T2 sequence (P21396 1-526): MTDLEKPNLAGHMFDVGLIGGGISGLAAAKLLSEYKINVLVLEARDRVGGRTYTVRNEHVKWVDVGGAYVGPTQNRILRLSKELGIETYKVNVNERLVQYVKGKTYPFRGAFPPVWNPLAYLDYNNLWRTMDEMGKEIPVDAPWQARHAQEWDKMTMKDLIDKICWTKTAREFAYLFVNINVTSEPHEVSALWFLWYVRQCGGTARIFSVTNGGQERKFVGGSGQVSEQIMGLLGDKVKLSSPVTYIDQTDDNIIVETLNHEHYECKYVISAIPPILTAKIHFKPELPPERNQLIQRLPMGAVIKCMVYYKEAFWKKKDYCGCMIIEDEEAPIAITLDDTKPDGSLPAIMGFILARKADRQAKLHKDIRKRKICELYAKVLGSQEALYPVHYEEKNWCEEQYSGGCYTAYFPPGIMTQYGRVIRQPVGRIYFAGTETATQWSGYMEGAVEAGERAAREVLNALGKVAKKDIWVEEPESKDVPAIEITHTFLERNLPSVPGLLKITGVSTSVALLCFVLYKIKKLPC
Experimental: as §1, §2, §3

MAO-A [3] = molecular target: T2, MAO-A; assay: Inhibition of MAO activity in vivo, MAO-A
Experimental: (§4) Inhibition of MAO Activity In Vivo: Chronic Treatment Experimental Protocol
(§5) Rats were treated with the test compounds (Table 5) at several dose levels by oral administration, one dose daily for 7-21 days, and decapitated 2 hours after the last dose. The activities of MAO-A and MAO-B were determined in the brain, liver and intestine as described in the previous example. Inhibition of MAO activity was calculated by dividing MAO activity in the treated rats by MAO activity in the control rats (saline treated, MAO activity in these rats was taken as 100%).
as §3

MAO-B [4] = molecular target: T1, MAO-B; assay: Inhibition of MAO activity in vivo, MAO-B
Experimental: as §4, §5, §3

MAO-A [5] = molecular target: T2, MAO-A; assay: Inhibition of MAO activity in vivo, MAO-A; conditions: tissue not stated; for inhibition at 10 µmol/kg: 10 μmol/kg (3.2-4 mg/kg), acute
MAO-B [6] = molecular target: T1, MAO-B; assay: Inhibition of MAO activity in vivo, MAO-B; conditions: tissue not stated; for inhibition at 10 µmol/kg: 10 μmol/kg (3.2-4 mg/kg), acute
[7] = rat brain homogenate, 60 min pre-incubation at 37° C., 14C PEA substrate, read-out: In vitro IC50 B
[8] = rat brain homogenate, 60 min pre-incubation at 37° C., 14C 5-HT substrate, read-out: In vitro IC50 A
[9] = oral, 150 μmol/kg, 7 days, tissue not stated
[10] = oral, 1 mg/kg (2.9 μmol/kg), 7 days, tissue not stated
[11] = oral, 15 mg/kg (44 μmol/kg), 7 days, tissue not stated

Molecule	IC50 (MAO-B [1]; [7]) [µM]	IC50 (MAO-A [2]; [8]) [µM]	further results
C#CCN(C)C1CCc2c(O)cccc21 (racemic) [Cmpd 117, 1-(methyl-prop-2-ynylamino)-4-indanol]	0.07	0.0083	
C#CCN(C)C1CCc2ccc(OC(=O)N(C)CCC)cc21 (centres unmarked) [Cmpd 143]	9.2	5.6	
C#CCN(C)C1CCc2cccc(OC(=O)N(C)CCC)c21 (centres unmarked) [Cmpd 144]	63	71	
C#CCN(C)[C@@H]1CCc2ccc(OC(=O)N(C)CC)cc21 [Cmpd 140]	12		inhibition at 2 µmol/kg (MAO-A [3]; po, read-out: % inhibition A): 6%; inhibition at 10 µmol/kg (MAO-A [3]; po, read-out: % inhibition A): 51%; inhibition at 50 µmol/kg (MAO-A [3]; po, read-out: % inhibition A): 65%; IC50 (MAO-A [2]): 4.3 µM; inhibition at 2 µmol/kg (MAO-B [4]; po, read-out: % inhibition B): 10%; inhibition at 10 µmol/kg (MAO-B [4]; po, read-out: % inhibition B): 30%; inhibition at 50 µmol/kg (MAO-B [4]; po, read-out: % inhibition B): 73%
C#CCN(C)C1CCc2cc(OC(=O)c3ccccc3)c(OC(=O)c3ccccc3)cc2C1 (racemic) [Cmpd 138, 6,7-di-O-benzoyl-2-(methyl-prop-2-ynylamino)-tetralin HCl]	0.4	1.2	
C#CCN(C)C1CCc2cc(O)c(O)cc2C1 (centres unmarked) [Cmpd 139, 6-(methyl-prop-2-ynylamino)-2,3-tetralindiol]	41	4.5	
C#CCN(C)[C@H]1CCc2ccc(OC(=O)C(C)(C)C)cc21 [Cmpd 129]	17	2.5	
C#CCN(C)C1CCc2c(OC(=O)c3c(OC)cccc3OC)cccc21 (racemic) [Cmpd 121]	3	0.34	
C#CCN(C)C1CCc2ccc(OC(=O)c3ccccc3)cc2C1 (racemic) [Cmpd 124, 7-O-benzoyl-2-(methyl-prop-2-ynylamino)-tetralin Hcl]	1.2	1.2	
C#CCN(C)C1CCc2cccc(O)c21 (racemic) [Cmpd 118, 3-(methyl-prop-2-ynylamino)-4-indanol]		0.07	IC50 (MAO-B [1]): 0.05 µM
C#CCN(C)[C@@H]1CCc2ccc(OC(C)=O)cc21 [Cmpd 116]	0.0056	0.035	
C#CCN[C@@H]1CCc2ccc(O)cc21 [Cmpd 101, (R)-3-prop-2-ynylamino-5-indanol mesylate]			inhibition at 5 mg/kg (MAO-A [3]; po, read-out: % inhibition A): 35%; inhibition at 25 mg/kg (MAO-A [3]; po, read-out: % inhibition A): 57%; inhibition at 5 mg/kg (MAO-B [4]; po, read-out: % inhibition B): 47%; inhibition at 25 mg/kg (MAO-B [4]; po, read-out: % inhibition B): 65%
C#CCN(C)[C@H]1CCc2ccc(O)cc21 [Cmpd 113, (S)3-(methyl-prop-2-ynylamino)-5-indanol]	23	12	
C#CCN(C)C1CCc2ccc(O)cc21 (racemic) [Cmpd 112, 3-(Methyl-Prop-2-Ynyl Amino)-5-Indanol]	0.01	0.03	
C#CCN[C@@H]1CCc2ccc(OC(=O)N(C)CC)cc21 [Cmpd 147]	> 1000	550	
C#CCN(C)[C@@H]1CCc2ccc(OC(=O)CCCC)cc21 [Cmpd 126]	0.13	0.058	

Molecule	IC50 (MAO-B [1]; [7]) [µM]	IC50 (MAO-A [2]; [8]) [µM]	further results
C#CCN(C)[C@H]1CCc2ccc(OC(=O)c3ccccc3)cc21 [Cmpd 127, Benzoic Acid (S)-3-(Methyl-Prop-2-Ynyl-Amino)-Indan-5-Yl Ester HCl]	5.6	3.8	
C#CCN(C)C1CCc2c(OC(C)=O)cccc21 (racemic) [Cmpd 119]	0.11	0.018	
C#CCN(C)C1CCc2c(OC(=O)N(C)CC)cccc21 (centres unmarked) [Cmpd 142]	4	0.027	
C#CCN(C)C1CCc2cccc(OC(=O)N(C)CC)c21 (centres unmarked) [Cmpd 141]	100	65	
C#CCN(C)[C@@H]1CCc2ccc(OC(=O)C(C)(C)C)cc21 [Cmpd 130]	2.5	0.56	inhibition at 10 µmol/kg (MAO-A [5]): 24%; inhibition at 10 µmol/kg (MAO-B [6]): 22%
C#CCN[C@@H]1CCc2ccc(OC(=O)N(C)CC)cc21 [Cmpd 146]			inhibition at 100 µmol/kg (MAO-A [5]; oral, 100 μmol/kg, 5 days): 56%; inhibition at 100 µmol/kg (MAO-B [6]; oral, 100 μmol/kg, 5 days): 74%; inhibition at 50 µmol/kg (MAO-A [3]; oral, 50 μmol/kg, 7 days, tissue not stated, read-out: % inhibition A): 46%; inhibition at 150 µmol/kg (MAO-A [3]; [9]): 74%; IC50 (MAO-A [2]; read-out: In vitro IC50 A): 300 µM; inhibition at 50 µmol/kg (MAO-B [4]; oral, 50 μmol/kg, 7 days, tissue not stated, read-out: % inhibition B): 52%; inhibition at 150 µmol/kg (MAO-B [4]; [9]): 87%
C#CCN(C)C1CCc2ccc(O)cc2C1 (racemic) [Cmpd 123, 7-(methyl-prop-2-ynylamino)-2-tetralinol]	0.48	0.41	
C#CCN(C)[C@@H]1CCc2ccc(OC(=O)c3ccccc3C)cc21 [Cmpd 132]	9.9	1.1	inhibition at 10 µmol/kg (MAO-A [5]): 41%; inhibition at 10 µmol/kg (MAO-B [6]): 37%
(S)-3-prop-2-ynylamino-5-indanol mesylate [Cmpd 100]	300	500	
C#CCN(C)C1CCc2c(OC(=O)c3ccccc3)cccc21 (racemic) [Cmpd 120]	0.91	0.13	
C#CCNC1CCCc2ccc(OC(=O)N(C)CC)cc21 (centres unmarked) [Cmpd 148]	100	500	
C#CCNC1CCc2ccc(OC(=O)N(C)CC)cc2C1 (centres unmarked) [Cmpd 149]	100	2	
C#CCN(C)[C@@H]1CCc2ccc(OC(=O)c3ccccc3)cc21 [Cmpd 128]	1	0.2	inhibition at 1 mg/kg (MAO-A [3]; [10]): 87%; inhibition at 5 mg/kg (MAO-A [3]; oral, 5 mg/kg (15 μmol/kg), 7 days, tissue not stated, read-out: % inhibition A): 95%; inhibition at 15 mg/kg (MAO-A [3]; [11]): 98%; inhibition at 1 mg/kg (MAO-B [4]; [10]): 77%; inhibition at 5 mg/kg (MAO-B [4]; oral, 5 mg/kg (15 μmol/kg), 7 days, tissue not stated, read-out: % inhibition B): 91%; inhibition at 15 mg/kg (MAO-B [4]; [11]): 91%
C#CCN(C)[C@@H]1CCc2ccc(OC(=O)c3c(OC)cccc3OC)cc21 [Cmpd 134]	5.9	1.2	inhibition at 10 µmol/kg (MAO-A [5]): 9%; inhibition at 10 µmol/kg (MAO-B [6]): 0%
C#CCN(C)C1CCc2cc(OC(=O)c3ccccc3)c(OC(=O)c3ccccc3)cc21 (racemic) [Cmpd 137, 5,6-Di-O-Benzoyl-1-(Methyl-Prop-2-Ynyl-Amino)-Indan HCl]	21	1.4	
C#CCN(C)[C@@H]1CCc2ccc(O)cc21 [Cmpd 114, (R)3-(methyl-prop-2-ynylamino)-5-indanol]	0.03	0.01	
